Test results as given in the NIST ThermoML archive (doi:10.1021/je020138s).

Assays:
[1] = excess molar enthalpy (molar enthalpy of mixing); xn = mol fraction of the nth substance listed; conditions: 101 kPa, Liquid, Calvet calorimetry
[2] = xn = mol fraction of the nth substance listed; conditions: 308.15 K, 101 kPa, Liquid

CCCCOC(=O)CCC [butyl butanoate] + CCCCCCCCCCCC
[1], 308 K
Conditions | excess molar enthalpy [kcal/mol]
x1 = 0.0894 | 0.0705
x1 = 0.1261 | 0.0937
x1 = 0.1734 | 0.123
x1 = 0.205 | 0.137
x1 = 0.2668 | 0.165
x1 = 0.3014 | 0.176
x1 = 0.326 | 0.183
x1 = 0.3509 | 0.188
x1 = 0.4179 | 0.203
x1 = 0.4544 | 0.208
x1 = 0.517 | 0.207
x1 = 0.5526 | 0.207
x1 = 0.6779 | 0.186
x1 = 0.7202 | 0.174
x1 = 0.8233 | 0.128
x1 = 0.8287 | 0.125
x1 = 0.9006 | 0.0808
x1 = 0.9307 | 0.0574

[2]
Conditions | excess molar volume [m3/mol]
x1 = 0.086 | 2.25e-07
x1 = 0.1642 | 4.085e-07
x1 = 0.2326 | 4.99e-07
x1 = 0.3151 | 5.957e-07
x1 = 0.4238 | 6.386e-07
x1 = 0.4435 | 6.409e-07
x1 = 0.5057 | 6.525e-07
x1 = 0.5458 | 6.501e-07
x1 = 0.6564 | 5.883e-07
x1 = 0.6617 | 5.83e-07
x1 = 0.6962 | 5.604e-07
x1 = 0.7365 | 5.311e-07
x1 = 0.7625 | 4.759e-07
x1 = 0.7821 | 4.581e-07
x1 = 0.8186 | 4.073e-07
x1 = 0.8623 | 3.308e-07
x1 = 0.9593 | 1.15e-07

CCCCCCCCO [octan-1-ol] + CCCCCCCCCCCC
[1], 308.15 K
Conditions | excess molar enthalpy [kcal/mol]
x1 = 0.1345 | 0.172
x1 = 0.1898 | 0.187
x1 = 0.2658 | 0.198
x1 = 0.3122 | 0.2
x1 = 0.4077 | 0.199
x1 = 0.4433 | 0.196
x1 = 0.4591 | 0.194
x1 = 0.5302 | 0.186
x1 = 0.5667 | 0.179
x1 = 0.6587 | 0.158
x1 = 0.6595 | 0.16
x1 = 0.7509 | 0.126
x1 = 0.7661 | 0.12
x1 = 0.8263 | 0.0932
x1 = 0.8566 | 0.0782
x1 = 0.8983 | 0.0574
x1 = 0.9353 | 0.0366
x1 = 0.97 | 0.017
